The first assay has as its system HCV 1b genotype. Kind of assay: HCV replicon assay (HCV-neo replicon cells, wild-type). The assay is classed as cell-based, Hepatitis C virus. To be noted: HCV 1b genotype replicon; class symbol; read-out: EC50 Range against HCV 1b. The essentials:
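HCV-neo replicon cells (wild-type) and replicon cells carrying NS5A resistance substitutions were treated with compounds; assay per O'Boyle et al. 2005, with luciferase-reporter read-out variants also used.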
Background: A replicon is a self-replicating genome or part of one, used to study replication in cells.
As for `CC(C)(C)OC(=O)N1CCCC1(C)C(=O)N1CCC[C@H]1C(=O)Nc1ccc(-c2cnc(-c3ccc(NC(=O)[C@@H]4CCCN4C(=O)C4(C)CCCN4C(=O)OC(C)(C)C)cc3)o2)cc1` (stereo partly drawn) [Example D-29, di-tert-butyl 2,2′-(1,3-oxazole-2,5-diylbis(4,1-phenylenecarbamoyl(2S)-2,1-pyrrolidinediylcarbonyl))bis(2-methyl-1-pyrrolidinecarboxylate)], the EC50 (usually the concentration at which the effect is half-maximal) was 1000 to 10000 nM.
With `O=C(Nc1ccc(-c2cnc(-c3ccc(NC(=O)[C@@H]4CCCN4C(=O)C(O)c4c[nH]c5cnccc45)cc3)o2)cc1)[C@@H]1CCCN1C(=O)C(O)c1c[nH]c2cnccc12` (stereo partly drawn) [Example D-17, (2S,2′S)-N,N′-(4,4′-(oxazole-2,5-diyl)bis(4,1-phenylene))bis(1-(2-hydroxy-2-(1H-pyrrolo[2,3-c]pyridin-3-yl)acetyl)pyrrolidine-2-carboxamide)], the EC50 fell in the range of 1000 to 10000 nM.

The assay is the same for the next values; noted with them: HCV 1b genotype replicon; class symbols; read-out: EC50 Range against HCV 1b.
On to `CC(C)(C)O[C@@H]1C[C@@H](C(=O)Nc2ccc(-c3cnc(-c4ccc(NC(=O)[C@@H]5C[C@@H](OC(C)(C)C)CN5C(=O)Cc5ccccn5)cc4)o3)cc2)N(C(=O)Cc2ccccn2)C1` [XY-75, (2S,4R,2′S,4′R)-N,N′-(1,3-oxazole-2,5-diyldi-4,1-phenylene)bis(4-tert-butoxy-1-(2-pyridinylacetyl)-2-pyrrolidinecarboxamide)], for which the EC50 was 4.57 to 99 nM.
Same read-out and setting: with `O=C(Nc1ccc(-c2cnc(-c3ccc(NC(=O)[C@@H]4C[C@@H](O)CN4C(=O)Cc4ccccn4)cc3)o2)cc1)[C@@H]1C[C@@H](O)CN1C(=O)Cc1ccccn1` [XY-58, (2S,4R,2′S,4′R)-N,N′-(1,3-oxazole-2,5-diyldi-4,1-phenylene)bis(4-hydroxy-1-(2-pyridinylacetyl)-2-pyrrolidinecarboxamide)] the figure was 100 to 999 nM.

Still in this assay, the particulars now being: HCV 1b genotype replicon; read-out: EC50 1b.
On to `O=C(Nc1ccc(-c2cnc(-c3ccc(NC(=O)[C@@H]4CCCN4C(=O)C(O)c4c[nH]c5cnccc45)cc3)o2)cc1)[C@@H]1CCCN1C(=O)C(O)c1c[nH]c2cnccc12` (stereo partly drawn) [Example D-17, (2S,2′S)-N,N′-(4,4′-(oxazole-2,5-diyl)bis(4,1-phenylene))bis(1-(2-hydroxy-2-(1H-pyrrolo[2,3-c]pyridin-3-yl)acetyl)pyrrolidine-2-carboxamide)], for which the half-maximal effective concentration (EC50) stood at 6820 nM.

The same assay, now with this note: Hepatitis C virus, HCV 1b genotype replicon; class symbol; read-out: EC50 Range against HCV 1b.
Turning to `O=C(Nc1ccc(-c2nnc(-c3ccc(NC(=O)[C@@H]4CCCN4C(=O)c4nc(Cl)cc5ccccc45)cc3)o2)cc1)[C@@H]1CCCN1C(=O)c1nc(Cl)cc2ccccc12` [RK-18, (2S,2′S)-N,N′-(1,3,4-oxadiazole-2,5-diyldi-4,1-phenylene)bis(1-((3-chloro-1-isoquinolinyl)carbonyl)-2-pyrrolidinecarboxamide)], the EC50 lay within 1000 to 10000 nM.
On the same count and under the same terms, with `C[C@H](NC(=O)Cc1ccccc1)C(=O)Nc1ccc(-c2nc[nH]c2-c2ccc(NC(=O)[C@H](C)NC(=O)Cc3ccccc3)cc2)cc1` [OL-9, (2S,2′S)-N,N′-(1H-imidazole-4,5-diyldi-4,1-phenylene)bis(2-((phenylacetyl)amino)propanamide)] the figure was 1000 to 10000 nM; with `CC(=O)N1CCC[C@H]1C(=O)Nc1ccc(-c2nnc(-c3ccc(NC(=O)[C@@H]4CCCN4C(=O)Cc4cccs4)cc3)o2)cc1` [Example D-62, (2S)-1-acetyl-N-[4-[5-[4-[[[(2S)-1-(2-thienylacetyl)-2-pyrrolidinyl]carbonyl]amino]phenyl]-1,3,4-oxadiazol-2-yl]phenyl]-2-pyrrolidinecarboxamide], 1000 to 10000 nM; with `CC1(C(=O)N2CCC[C@H]2C(=O)Nc2ccc(-c3cnc(-c4ccc(NC(=O)[C@@H]5CCCN5C(=O)C5(C)CCCN5)cc4)o3)cc2)CCCN1` (stereo partly drawn) [Example D-36, (2S,2′S)-N,N′-(1,3-oxazole-2,5-diyldi-4,1-phenylene)bis(1-((2-methyl-2-pyrrolidinyl)carbonyl)-2-pyrrolidinecarboxamide)], 1000 to 10000 nM.
With `CC(=O)N1CCC[C@H]1C(=O)Nc1ccc(-c2nc(-c3ccc(NC(=O)[C@@H]4C=CCN4C(=O)c4cccs4)cc3)cs2)cc1` [Example D-47, (2S)-N-[4-[2-[4-[[[(2S)-1-acetyl-2-pyrrolidinyl]carbonyl]amino]phenyl]-4-thiazolyl]phenyl]-2,5-dihydro-1-(2-thienylcarbonyl)-1H-pyrrole-2-carboxamide], the EC50 was 1000 to 10000 nM.
On the same count and under the same terms, with `C[C@H](NC(=O)c1cc(Cl)cc2ccccc12)C(=O)Nc1ccc(-c2cc(-c3ccc(NC(=O)[C@H](C)NC(=O)c4cc(Cl)cc5ccccc45)cc3)[nH]n2)cc1` [OL-47, N,N′-(1H-pyrazole-3,5-diylbis(4,1-phenyleneimino((2S)-1-oxo-1,2-propanediyl)))bis(3-chloro-1-naphthamide)] the figure was 4.57 to 99 nM; with `C[C@@](O)(C(=O)N1CCC[C@H]1C(=O)Nc1ccc(-c2nc[nH]c2-c2ccc(NC(=O)[C@@H]3CCCN3C(=O)[C@@](C)(O)c3ccccc3)cc2)cc1)c1ccccc1` [JG-46, (2S,2′S)-N,N′-(1H-imidazole-4,5-diyldi-4,1-phenylene)bis(1-((2S)-2-hydroxy-2-phenylpropanoyl)-2-pyrrolidinecarboxamide)], < 4.57 nM.
Still for that read-out and setting: with `O=C(Nc1ccc(-c2nnc(-c3ccc(NC(=O)C4CCCN4C(=O)Cc4ccccc4)cc3)o2)cc1)C1CCCN1C(=O)Cc1ccccc1` (stereo not shown) [RK-3, N,N′-(1,3,4-oxadiazole-2,5-diyldi-4,1-phenylene)bis(1-(phenylacetyl)-2-pyrrolidinecarboxamide)] the figure was 100 to 999 nM.
Still for that read-out and setting: for `O=C(Nc1ccc(-c2cc(-c3ccc(NC(=O)[C@@H]4C[C@@H](O)CN4C(=O)Cc4ccccc4)cc3)[nH]n2)cc1)[C@@H]1C[C@@H](O)CN1C(=O)Cc1ccccc1` [OL-28, (2S,4R,2′S,4′R)-N,N′-(1H-pyrazole-3,5-diyldi-4,1-phenylene)bis(4-hydroxy-1-(phenylacetyl)-2-pyrrolidinecarboxamide)] the value was 4.57 to 99 nM; for `O=C(Nc1ccc(-c2nnc(-c3ccc(NC(=O)[C@@H]4CCCN4C(=O)[C@@H](O)c4ccccc4)cc3)o2)cc1)[C@@H]1CCCN1C(=O)[C@@H](O)c1ccccc1` [RK-17, (2S,2′S)-N,N′-(1,3,4-oxadiazole-2,5-diyldi-4,1-phenylene)bis(1-((2S)-2-hydroxy-2-phenylacetyl)-2-pyrrolidinecarboxamide)], 100 to 999 nM.
On to `O=C(Nc1ccc(-c2nnc(-c3ccc(NC(=O)[C@@H]4CCCN4C(=O)c4ccc5ccccc5n4)cc3)o2)cc1)[C@@H]1CCCN1C(=O)c1ccc2ccccc2n1` [RK-10, (2S,2′S)-N,N′-(1,3,4-oxadiazole-2,5-diyldi-4,1-phenylene)bis(1-(2-quinolinylcarbonyl)-2-pyrrolidinecarboxamide)], for which the EC50 is 1000 to 10000 nM.
In the case of `CC(O)(C(=O)N1CCC[C@H]1C(=O)Nc1ccc(-c2ncc(-c3ccc(NC(=O)[C@@H]4CCCN4C(=O)[C@@](C)(O)c4ccccc4)cc3)o2)cc1)c1ccccc1` (stereo partly drawn) [JG-22, (2S)-1-((2S)-2-hydroxy-2-phenylpropanoyl)-N-(4-(2-(4-((((2S)-1-(2-hydroxy-2-phenylpropanoyl)-2-pyrrolidinyl)carbonyl)amino)phenyl)-1,3-oxazol-5-yl)phenyl)-2-pyrrolidinecarboxamide], the EC50 is < 4.57 nM.
On to `C[C@H](NC(=O)[C@H](O)c1ccccc1)C(=O)Nc1ccc(-c2cnc(-c3ccc(NC(=O)[C@H](C)NC(=O)[C@H](O)c4ccccc4)cc3)o2)cc1` [OL-55, (2S,2′S)-N,N′-(1,3-oxazole-2,5-diyldi-4,1-phenylene)bis(2-(((2R)-2-hydroxy-2-phenylacetyl)amino)propanamide)], for which the EC50 is < 4.57 nM.
Still for that read-out and setting: for `Cn1nc(-c2ccc(NC(=O)[C@@H]3CCCN3C(=O)OCc3ccccc3)cc2)cc1-c1ccc(NC(=O)[C@@H]2CCCN2C(=O)OCc2ccccc2)cc1` [FY-3, dibenzyl (2S,2′S)-2,2′-((1-methyl-1H-pyrazole-3,5-diyl)bis(4,1-phenylenecarbamoyl))di(1-pyrrolidinecarboxylate)] the value was 100 to 999 nM.
Take `CC(=O)N1CCC[C@H]1C(=O)Nc1ccc(-c2nc(-c3ccc(NC(=O)[C@@H]4C=CCN4C(=O)c4ccccc4)cc3)cs2)cc1` [Example D-53, (2S)-N-[4-[2-[4-[[[(2S)-1-acetyl-2-pyrrolidinyl]carbonyl]amino]phenyl]-4-thiazolyl]phenyl]-1-benzoyl-2,5-dihydro-1H-pyrrole-2-carboxamide]: the EC50 was 1000 to 10000 nM.

The same assay, now with this note: Hepatitis C virus, HCV 1b genotype replicon; class symbols; read-out: EC50 Range against HCV 1b.
Take `O=C(Nc1ccc(-c2cnc(-c3ccc(NC(=O)[C@@H]4CCCN4C(=O)C4CCCCC4)cc3)o2)cc1)[C@@H]1CCCN1C(=O)C1CCCCC1` [XY-15, (2S,2′S)-N,N′-(1,3-oxazole-2,5-diyldi-4,1-phenylene)bis(1-(cyclohexylcarbonyl)-2-pyrrolidinecarboxamide)]: the EC50 was in the range of 100 to 999 nM.
In the case of `Cn1cnc(CC(=O)N2CCC[C@H]2C(=O)Nc2ccc(-c3cnc(-c4ccc(NC(=O)[C@@H]5CCCN5C(=O)Cc5cn(C)cn5)cc4)o3)cc2)c1` [XY-42, (2S,2′S)-N,N′-(1,3-oxazole-2,5-diyldi-4,1-phenylene)bis(1-((1-methyl-1H-imidazol-4-yl)acetyl)-2-pyrrolidinecarboxamide)], the EC50 fell in the range of 1000 to 10000 nM.
Still for that read-out and setting: for `O=C(Nc1ccc(-c2cnc(-c3ccc(NC(=O)[C@@H]4C[C@@H](O)CN4C(=O)Cc4cccnc4)cc3)o2)cc1)[C@@H]1C[C@@H](O)CN1C(=O)Cc1cccnc1` [XY-45, (2S,4R,2′S,4′R)-N,N′-(1,3-oxazole-2,5-diyldi-4,1-phenylene)bis(4-hydroxy-1-(3-pyridinylacetyl)-2-pyrrolidinecarboxamide)] the value was 1000 to 10000 nM; for `CC(=O)N1CCC(C(=O)N2CCC[C@H]2C(=O)Nc2ccc(-c3cnc(-c4ccc(NC(=O)[C@@H]5CCCN5C(=O)C5CCN(C(C)=O)CC5)cc4)o3)cc2)CC1` [XY-23, (2S,2′S)-N,N′-(1,3-oxazole-2,5-diyldi-4,1-phenylene)bis(1-((1-acetyl-4-piperidinyl)carbonyl)-2-pyrrolidinecarboxamide)], 100 to 999 nM; for `Cn1cc(C(=O)N2CCC[C@H]2C(=O)Nc2ccc(-c3nnc(-c4ccc(NC(=O)[C@@H]5CCCN5C(=O)c5cn(C)c6ccccc56)cc4)o3)cc2)c2ccccc21` [RK-42, (2S,2′S)-N,N′-(1,3,4-oxadiazole-2,5-diyldi-4,1-phenylene)bis(1-((1-methyl-1H-indol-3-yl)carbonyl)-2-pyrrolidinecarboxamide)], 1000 to 10000 nM.

Still in this assay, the particulars now being: Hepatitis C virus, HCV 1b genotype replicon; read-out: EC50 1b.
As for `CC(=O)N1CCC[C@H]1C(=O)Nc1ccc(-c2nnc(-c3ccc(NC(=O)[C@@H]4CCCN4C(=O)Cc4cccs4)cc3)o2)cc1` [Example D-62, (2S)-1-acetyl-N-[4-[5-[4-[[[(2S)-1-(2-thienylacetyl)-2-pyrrolidinyl]carbonyl]amino]phenyl]-1,3,4-oxadiazol-2-yl]phenyl]-2-pyrrolidinecarboxamide], the EC50 came out at 3470 nM.
The same measure, in the same setting: for `CC(O)(C(=O)N1CCC[C@H]1C(=O)Nc1ccc(-c2ncc(-c3ccc(NC(=O)[C@@H]4CCCN4C(=O)[C@@](C)(O)c4ccccc4)cc3)o2)cc1)c1ccccc1` (stereo partly drawn) [JG-22, (2S)-1-((2S)-2-hydroxy-2-phenylpropanoyl)-N-(4-(2-(4-((((2S)-1-(2-hydroxy-2-phenylpropanoyl)-2-pyrrolidinyl)carbonyl)amino)phenyl)-1,3-oxazol-5-yl)phenyl)-2-pyrrolidinecarboxamide] the value was < 5 nM; for `CC(=O)N1CCC[C@H]1C(=O)Nc1ccc(-c2nc(-c3ccc(NC(=O)[C@@H]4C=CCN4C(=O)c4ccccc4)cc3)cs2)cc1` [Example D-53, (2S)-N-[4-[2-[4-[[[(2S)-1-acetyl-2-pyrrolidinyl]carbonyl]amino]phenyl]-4-thiazolyl]phenyl]-1-benzoyl-2,5-dihydro-1H-pyrrole-2-carboxamide], 1130 nM.

These data come from patent publication US8735398B2 (Bristol-Myers Squibb Company, priority 2009, dated 2014).
